According to US12729381B2, “Methods and compositions for inactivating interleukin-2-inducible t-cell kinase (ITK)” (priority 2020, dated 2026):
Non-standard residues stand in square brackets, D forms with d. No end group written: not given here. *: point of attachment. FITC = O=C1OC2(c3ccc(O)cc3Oc3cc(O)ccc32)c2ccc(NC(=S)*)cc21; pY = N[C@@H](Cc1ccc(OP(=O)(O)O)cc1)C(=O)O

Legend:
[1] = system: T cells from GVHD patient blood samples; assay: T cells from GVHD patient blood samples treated with SLP76pTYR; type: cell-based, human
SLP76: ITK signaling = assay: Western blot of signaling proteins in human T cells from PBMC stimulated with anti-CD3 (OKT3); type: cell-based; conditions: vs vehicle alone
Experimental: Western blotting: For protein analysis, T cells were either nonstimulated, or stimulated with anti-CD3 and anti-CD28 for 24 hours overnight, and were lysed with freshly prepared lysis buffer (RIPA Buffer (Fisher Scientific cat #PI89900)+cOmplete Protease Inhibitor Cocktail (Sigma-Aldrich; cat #11697498001)) and centrifuged for 10 minutes at 14000 rpm at 4° C. Protein aliquots of 70 μg of protein were loaded on a 12-18% denaturing polyacrylamide gel and transferred to nitrocellulose membranes for immunoblot analysis using antibodies specific to proteins of interest.
Human Samples: According to our IRB protocol (1140566-4), blood samples were obtained by vein puncture, and T cells were isolated from peripheral blood mononuclear cells (PBMC) of regular healthy donors. T cells were isolated from patient and healthy donor samples by Ficoll-Hypaque density centrifugation. The final product was resuspended at 3×10^6 cells/ml in media and stimulated with OKT-3/anti-CD3 ([…]; Ortho Bio-Tech) and anti-human CD28 ([…]; Biolegend; cat #302902) presence of […] of protamine sulfate and 1 mg/ml SLP76pTYR or vehicle for five minutes. T cell lysates were used in western blot analysis.
ITK deficiency is known to enhance the development of regulatory T cells (Tregs) (Elmore et al., 2020, Owen et al., 2019) so the peptide inhibitor was tested to determine whether inhibition of the ITK: SLP76Y145 interactions using SLP76pTYR would induce Tregs. First, the frequency of Tregs was examined by expression of CD4^+ and FoxP3^+ (FIG. 18A). Next, total mouse T cells were stimulated with anti-CD3 (Sugie et al., 2004) in the presence of either SLP76pTYR, nonspecific peptide, or vehicle alone for 5 to 24 hours, and cells were harvested and examined for the presence of Tregs (CD4^+CD25^+FoxP3^+). […] Next, the effects of SLP76pTYR peptide on human PBMC samples from healthy human patients was investigated. T cells from these patients were stimulated with anti-CD3 (OKT3) (Karimi et al., 2005) for 5 minutes in the presence of SLP76pTYR or vehicle alone. […] No differences in stimulated or unstimulated total human AKT (FIG. 18E and FIG. 28H) was observed, providing a showing that the SLP76pTYR peptide has an impact on signaling pathways downstream of SLP76 in both mouse and human T cells. […] Next, the ability of SLP76pTYR peptide to affect the production of proinflammatory cytokines in human PBMCs was investigated. T cells from healthy human were stimulated with anti-CD3 (OKT3) and anti-CD28 in the presence of SLP76pTYR or vehicle alone, along with Brefeldin A. T cells incubated with SLP76pTYR or vehicle alone were also examined in the presence of PMA+lonomycin and Brefeldin A for 6 hours.
More specifically, FIGS. 18A-18F depict Novel peptide SLP76pTYR specifically targets SLP76: ITK signaling and enhances Treg cell development. (FIG. 18A) Murine CD4^+ T cells were examine for total CD4+ and FOXP3 expression prior to treatment with SLP76pTYR. n=3, and one representative experiment is shown. (FIG. 18B) Total T cells stimulated in the presence of SLP76pTYR, nonspecific peptide, or vehicle alone were examined for total CD4 cells that are FoxP3^+. n=3, and one representative experiment is shown. (FIG. 18C) Quantification of three experiments as in (A) (FIG. 18D) Cell lysates were obtained from mouse T cells stimulated with anti-CD3 and anti-CD28 in the presence of SLP76pTYR, or vehicle alone. […]

Tregs (CD4+CD25+FoxP3+) = assay: Treg differentiation in total mouse T cells stimulated with anti-CD3; type: cell-based; conditions: anti-CD3, 5 to 24 hours; compared to vehicle alone or nonspecific peptide
Text: To ensure that the peptide easily enters cells and that its cellular localization can be monitored, a C-terminal TAT peptide (GRKKRRQRRRPQ) (SEQ ID NO:3) and an N-terminal fluorescent FITC dye were incorporated, respectively, and named it SLP76pTYR peptide ([…]). SLP76pTYR peptide (FITC Dye ^132NEEEEAPVEDDADpYEPPPSNDEEA^155-TAT) (SEQ ID NO:5) and non-specific control peptide (FITC Dye-[…]-TAT) (SEQ ID NO:6) were synthesized by Genscript Inc (Piscataway, NJ). These peptides were initially dissolved in 3% ammonia water to a final concentration of 10 mg/mL and then further diluted into PBS to a final concentration of 0.1 mg/mL. Fresh splenocytes were isolated from WT mice, and T cells were generated from splenocytes as previously described (Baker et al., 2001). […] Cells were examined for the presence of FITC by microscopy using a Leica DMi8 microscope equipped with an infinity total internal reflection fluorescence (TIRF) and DIC modules, a Lumencor SOLA SE II light box, a 150 mW 488 (GFP) laser and filter cube, a 100x/1.47 NA objective, and an Andor iXon Life 897 EMCCD camera. […]

With “FITC Dye ^132NEEEEAPVEDDADpYEPPPSNDEEA^155-TAT ({FITC}-NEEEEAPVEDDAD[pY]EPPPSNDEEAGRKKRRQRRRPQ) [SLP76pTYR]” the IFN-γ production [1] was “significantly reducing IFN-γ and TNF-αproduction”, the TNF-α production [1] was “significantly reducing IFN-γ and TNF-αproduction” and the “development of FoxP3+ regulatory T cells” value [1] was “enhances the development of FoxP3^+ regulatory T cells”. For the same substance, the “phosphorylation of ERK, stimulated” value (SLP76: ITK signaling; anti-CD3 (OKT3) for 5 minutes) was “reduced phosphorylation of PLCγ1 and ERK”, the “phosphorylation of PLCγ1, stimulated” value (SLP76: ITK signaling; anti-CD3 (OKT3) for 5 minutes) was “reduced phosphorylation of PLCγ1 and ERK” and the “non-stimulated phospho ERK” value (SLP76: ITK signaling; non-stimulated T cells) was “No differences in non-stimulated phospho PLCγ1 and ERK were observed”. The “non-stimulated phospho PLCγ1” value (SLP76: ITK signaling; non-stimulated T cells) was “No differences in non-stimulated phospho PLCγ1 and ERK were observed”, the “total AKT and stimulated or unstimulated phospho AKT” value (SLP76: ITK signaling) was “No differences in total AKT or either stimulated or unstimulated phospho AKT was observed” and the “differentiation of Treg cells” value (Tregs (CD4+CD25+FoxP3+)) was “Significantly enhanced differentiation of Treg cells”.
